Results on 2 compounds are retold here after patent US7504401B2, “Anti-cancer agents and uses thereof” (Locus Pharmaceuticals, Inc., priority 2003, dated 2009).

Format in all cases: cell-based
Experiment [1] relates to MCF-7 breast cancer cells. Briefly: Cell cycle assay, flow cytometry with propidium iodide, Example 126. The conditions noted are these: MCF-7 cells, 24 h, 0.5% FCS, Table 2. As for the experimental part: (§1) MCF-7 breast cancer cells and Jurkat T-cell leukemic cells were grown (and maintained) in EMEM and RPMI media, respectively, containing 10% fetal calf serum.
Cells were allowed to adhere for 24 hrs. After adherence, cell culture media was changed to that containing 0.5% FCS. Thirty minutes post-media change, test compounds were added at a concentration of 1 μM. Twenty-fours after test agent addition, cells were analyzed for cell cycle status as described below.
(§2) Cell cycle status was analyzed by flow cytometry. Briefly, cells were collected and washed with FACs buffer (Pharmingen) and resuspended and fixed in 1 mL of 80% ethanol for 1 hr. Cells were washed with FACs buffer and resuspended in propidium iodide(PI)/RNase staining buffer (Pharmingen). PI is a fluorescent dye that labels nucleic acids such as DNA. The fluorescence within a cell (in the presence of PI) is proportional to the amount of DNA within a cell. The cell content of DNA is an indices of status in the cell cycle. […] Cells in the S phase have DNA content that lies between these extremes.
(§3) For testing of cell cycle effects of test agents the percentage of cells within the G1 and G2/M phase were measured.
Background: A flow cytometer gives signals particle by particle.

In experiment [2] the test system is Jurkat T-cell leukemic cells. The experiment is described as above. Particulars: 24 h, 0.5% serum, Table 2. As for the experimental part:
as §1
Test agents were added a concentration of 0.1 μM. Twenty-fours after test agent addition, cells were analyzed for cell cycle status as described below.
as §2, §3

The test system of the next experiment is Hela cells. Briefly: Cell viability assay (WST-1 colorimetric mitochondrial reduction), Example 125. The conditions noted are these: Homo sapiens, 0.5% fetal calf serum, 48-72 hrs. As for the experimental part: Jurkat and Hela cells were cultured in RPMI and EMEM media, respectively, containing 0.5% fetal calf serum. Cells were plated in a volume of 100 μL in a 96 well format. Test compounds were included in the culture media at concentrations ranging from 1 nM to 10 μM for a period of 48-72 hrs. […] Briefly, 10 μL of WST-1 reagent was included in the culture well for a period of 1 to 4 hrs. The WST-1 reaction was read on a multiwell spectrophotometer as the difference in the absorbance between 450 nm and 600 nm (baseline). Absorbance was proportional to the number of living cells in the culture well. Concentration response curves and IC50 values were calculated using GraphPAD Prism graphing and curve fitting program.

Regarding `[O-][n+]1cccc(Nc2cc(O)cc(-c3cccc4[nH]ccc34)c2)c1` [3-(1H-Indol-4-yl)-5-(1-oxy-pyridin-3-ylamino)-phenol], in experiment [1], the “MCF-7 G2/M Block 1 μM” value is on record as “Y (Y indicates a 50% or greater increase in the number of cells in the G2/M phase, as compared to control)”. The “Jurkat G2/M Block 0.1 μM” value in experiment [2] was “Y (Y indicates a 50% or greater increase in the number of cells in the G2/M phase, as compared to control)”. On to `CC(=O)N(c1cccnc1)c1cccc(-c2cccc3[nH]ccc23)c1` [N-[3-(1H-Indol-4-yl)-phenyl]-N-pyridin-3-yl-acetamide], for which the IC50 (usually the midpoint of a concentration-inhibition curve) in the experiment with Hela cells is 1 to 30 µM.
